Laboratory results as given in patent US12139487B2, “Compounds and uses thereof” (Foghorn Therapeutics Inc., priority 2022, dated 2024).
pIC50: −log10 of the molar value. Values belong to the molecule of their own block, whether it stands above or below them.

What was measured:
[1] = test system: parental MP41 and PKCi-resistant MP41 uveal melanoma cells; test: 7-day growth inhibition assay in parental and PKC inhibitor-resistant MP41 cells; format: cell-based
Method: Procedure: MP41 uveal melanoma cells were made resistant to the PKC inhibitor (LXS196; MedChemExpress), by long-term culture in growth media (see Table 9) containing increasing concentrations of the compound, up to 1 micromolar. After 3 months, sensitivity of the parental MP41 cells and the PKC inhibitor (PKCi)-resistant cells to the PKC inhibitor (LXS196) or the BRG1/BRM ATPase inhibitor (Compound B) was tested in a 7-day growth inhibition assay as described above in Example 6.

[2] = test system: 92-1 uveal melanoma cells (subcutaneous tumors); test: 92-1 uveal melanoma xenograft tumor growth in nude mice; format: in vivo; settings: 3 weeks
Method: Procedure: Nude mice (Envigo) were engrafted subcutaneously in the axillary region with 5×10^6 92-1 uveal melanoma cells in 50% Matrigel. Tumors were grown to a mean of ˜200 mm^3, at which point mice were grouped and dosing was initiated. Mice were dosed once daily by oral gavage with vehicle (20% 2-Hydroxypropyl-β-Cyclodextrin) or increasing doses of Compound C. Tumor volumes and body weights were measured over the course of 3 weeks, and doses were adjusted by body weight to achieve the proper dose in terms of mg/kg. At this time, animals were sacrificed, and tumors were dissected and imaged.

[3] = test system: uveal melanoma cell lines 92-1 and MP41; test: Comparison of Compound B with clinical PKC and MEK inhibitors in uveal melanoma cell lines (3 day growth); format: cell-based; settings: vs LXS196 and Selumetinib
Method: Procedure: Uveal melanoma cell lines, 92-1 or MP41, were plated in 96 well plates in the presence of growth media (see Table 9). BAF ATPase inhibitor (Compound B), PKC inhibitor (LXS196; MedChemExpress), and MEK inhibitor (Selumetinib; Selleck Chemicals) were dissolved in DMSO and added to the cells in a concentration gradient from 0 to 10 micromolar at the time of plating. Cells were incubated at 37° C. for 3 days. After three days of treatment, cell growth was measured with Cell-titer glow (Promega), and luminescence was read on an Envision plate reader (Perkin Elmer).

[4] = test system: uveal melanoma cell lines (92-1, MP41, MP38, MP46); test: Growth of uveal melanoma and non-small cell lung cancer cell lines (3 day, Cell-titer glow); format: cell-based; settings: 3 days; 0 to 10 micromolar; FIG. 5
Method: Procedure: Uveal melanoma cell lines (92-1, MP41, MP38, MP46) and Non-small cell lung cancer cells (NCIH1299) were plated into 96 well plates with growth media (see Table 9). BRG1/BRM ATPase inhibitor, compound 67, was dissolved in DMSO and added to the cells in a concentration gradient from 0 to 10 micromolar at the time of plating. Cells were incubated at 37° C. for 3 days. After three days of treatment, cell growth was measured with Cell-titer glow (Promega), and luminescence was read on an Envision plate reader (Perkin Elmer).

[5] = test system: uveal melanoma, hematologic cancer, prostate cancer, breast cancer and Ewing's sarcoma cell lines versus other tested cell lines; test: Growth of uveal melanoma, hematological, prostate, breast cancer and Ewing's sarcoma cell lines with Compound B (day 3 and day 7); format: cell-based
Method: (§1) Procedure: Uveal melanoma cell lines (92-1, MP41, MP38, MP46), prostate cancer cell lines (LNCAP), lung cancer cell lines (NCI-H1299), and immortalized embryonic kidney lines (HEK293T) were plated into 96 well plates with growth media (see Table 9). […] Cells were incubated at 37 degrees Celsius for 3 days. After three days of treatment, the media was removed from the cells and 30 microliters of TrypLE (Gibco) was added to cells for 10 minutes. Cells were detached from the plates and resuspended with the addition of 170 microliters of growth media. Cells from two DMSO-treated control wells were counted, and the initial number of cells plated at the start of the experiment, were re-plated into fresh-compound containing plates for an additional four days at 37 degrees Celsius. At day 7, cells were harvested as described above. On day 3 and day 7, relative cell growth was measured by the addition of Cell-titer glo (Promega) and luminescence was measured on an Envision plate reader (Perkin Elmer). […] At the time of cell splitting on days 3 and 7, cells were split into new 96 well plates, and fresh compound was added four hours after re-plating.
Procedure: All cell lines described above in Example 4 were also tested as described above with Compound B. In addition, the following cell lines were also tested as follows. […]

[6] = test system: uveal melanoma cell lines 92-1 and MP41; test: Comparison of Compound A with clinical PKC and MEK inhibitors in uveal melanoma cell lines (3 day growth); format: cell-based; settings: vs LXS196 and Selumetinib
Method: Procedure: Uveal melanoma cell lines, 92-1 or MP41, were plated in 96 well plates in the presence of growth media (see […]). […] Cells were incubated at 37 degrees Celsius for 3 days. After three days of treatment, cell growth was measured with Cell-titer glow (Promega), and luminescence was read on an Envision plate reader (Perkin Elmer).

[7] = test system: uveal melanoma and hematologic cancer cell lines versus other tested cell lines; test: Growth of uveal melanoma, hematological and other cancer cell lines with Compound A (Cell-titer glo, day 3 and day 7, GI50); format: cell-based; settings: day 7
Method: as §1

BRG-1 = target: T1, BRG-1 (Homo sapiens, UniProt P51532); test: ATPase catalytic activity assay (ADP-Glo), BRG-1; format: biochemical; settings: Table 10, read-out: BRG1 IC50
T1 construct: made in house; host or cells: High Five insect cells
Outline: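 BRG-1 ATPase activity was measured by ADP-Glo. Unconsumed ATP was depleted for 40 min at room temperature, then ADP was converted to ATP for 60 min and read as luminescence.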

BRM = target: T2, BRM (Homo sapiens, UniProt P51531); test: ATPase catalytic activity assay (ADP-Glo), BRM; format: biochemical; settings: Table 10; for Ratio (BRG1 IC50 (μM) divided by BRM IC50 (μM)): ATPase assay, selectivity BRG1/BRM; for pIC50: ATPase catalytic activity assay (ADP-Glo)
T2 construct: made in house; host or cells: High Five insect cells
Outline: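 Reaction holds 30 nM BRM, 20 nM salmon sperm DNA and 400 μM ATP in 20 mM Tris pH 8, 20 mM MgCl2, 50 mM NaCl, 0.1% Tween-20, 1 mM DTT. Incubated 1 h at room temperature. ADP formed is detected by ADP-Glo luminescence.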

T2 sequence (P51531 whole entry): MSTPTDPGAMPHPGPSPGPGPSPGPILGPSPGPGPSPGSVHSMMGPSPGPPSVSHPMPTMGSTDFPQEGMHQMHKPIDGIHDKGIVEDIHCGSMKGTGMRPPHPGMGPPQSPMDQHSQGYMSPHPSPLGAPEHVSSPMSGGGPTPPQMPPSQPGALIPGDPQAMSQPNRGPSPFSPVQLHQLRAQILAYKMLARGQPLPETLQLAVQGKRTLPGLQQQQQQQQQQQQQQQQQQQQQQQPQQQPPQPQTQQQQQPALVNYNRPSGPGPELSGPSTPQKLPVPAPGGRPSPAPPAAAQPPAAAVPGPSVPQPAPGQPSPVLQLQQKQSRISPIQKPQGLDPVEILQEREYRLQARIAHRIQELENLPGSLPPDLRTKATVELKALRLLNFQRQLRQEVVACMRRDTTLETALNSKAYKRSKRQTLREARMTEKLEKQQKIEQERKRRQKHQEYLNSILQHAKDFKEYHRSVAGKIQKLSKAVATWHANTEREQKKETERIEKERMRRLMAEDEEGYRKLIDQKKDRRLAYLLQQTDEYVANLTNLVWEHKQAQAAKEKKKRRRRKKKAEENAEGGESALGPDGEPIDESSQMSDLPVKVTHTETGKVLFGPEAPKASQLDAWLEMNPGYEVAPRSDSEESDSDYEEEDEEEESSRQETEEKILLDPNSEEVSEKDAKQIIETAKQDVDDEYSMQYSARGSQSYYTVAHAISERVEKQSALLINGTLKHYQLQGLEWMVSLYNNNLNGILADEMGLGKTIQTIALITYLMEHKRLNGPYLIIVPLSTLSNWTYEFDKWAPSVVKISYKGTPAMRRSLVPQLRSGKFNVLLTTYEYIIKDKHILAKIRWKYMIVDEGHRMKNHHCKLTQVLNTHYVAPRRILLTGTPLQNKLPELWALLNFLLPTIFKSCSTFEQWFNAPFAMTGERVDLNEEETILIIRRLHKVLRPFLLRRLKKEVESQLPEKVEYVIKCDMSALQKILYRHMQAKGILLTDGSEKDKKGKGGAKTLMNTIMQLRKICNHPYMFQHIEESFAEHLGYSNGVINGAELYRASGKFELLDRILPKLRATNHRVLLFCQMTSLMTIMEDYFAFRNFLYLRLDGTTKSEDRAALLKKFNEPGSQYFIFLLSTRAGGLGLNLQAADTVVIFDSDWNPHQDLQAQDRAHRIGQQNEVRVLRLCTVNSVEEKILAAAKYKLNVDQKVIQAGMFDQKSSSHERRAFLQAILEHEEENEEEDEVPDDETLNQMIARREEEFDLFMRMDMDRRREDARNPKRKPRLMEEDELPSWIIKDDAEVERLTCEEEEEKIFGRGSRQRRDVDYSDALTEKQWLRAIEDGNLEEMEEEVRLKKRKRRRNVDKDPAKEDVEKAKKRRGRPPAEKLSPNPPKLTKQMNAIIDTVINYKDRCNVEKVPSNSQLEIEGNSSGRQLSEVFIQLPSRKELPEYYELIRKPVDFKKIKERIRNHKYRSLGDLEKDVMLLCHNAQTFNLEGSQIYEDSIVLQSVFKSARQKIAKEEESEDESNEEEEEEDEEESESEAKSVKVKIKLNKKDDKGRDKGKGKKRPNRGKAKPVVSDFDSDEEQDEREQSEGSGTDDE
T1 sequence (P51532 whole entry): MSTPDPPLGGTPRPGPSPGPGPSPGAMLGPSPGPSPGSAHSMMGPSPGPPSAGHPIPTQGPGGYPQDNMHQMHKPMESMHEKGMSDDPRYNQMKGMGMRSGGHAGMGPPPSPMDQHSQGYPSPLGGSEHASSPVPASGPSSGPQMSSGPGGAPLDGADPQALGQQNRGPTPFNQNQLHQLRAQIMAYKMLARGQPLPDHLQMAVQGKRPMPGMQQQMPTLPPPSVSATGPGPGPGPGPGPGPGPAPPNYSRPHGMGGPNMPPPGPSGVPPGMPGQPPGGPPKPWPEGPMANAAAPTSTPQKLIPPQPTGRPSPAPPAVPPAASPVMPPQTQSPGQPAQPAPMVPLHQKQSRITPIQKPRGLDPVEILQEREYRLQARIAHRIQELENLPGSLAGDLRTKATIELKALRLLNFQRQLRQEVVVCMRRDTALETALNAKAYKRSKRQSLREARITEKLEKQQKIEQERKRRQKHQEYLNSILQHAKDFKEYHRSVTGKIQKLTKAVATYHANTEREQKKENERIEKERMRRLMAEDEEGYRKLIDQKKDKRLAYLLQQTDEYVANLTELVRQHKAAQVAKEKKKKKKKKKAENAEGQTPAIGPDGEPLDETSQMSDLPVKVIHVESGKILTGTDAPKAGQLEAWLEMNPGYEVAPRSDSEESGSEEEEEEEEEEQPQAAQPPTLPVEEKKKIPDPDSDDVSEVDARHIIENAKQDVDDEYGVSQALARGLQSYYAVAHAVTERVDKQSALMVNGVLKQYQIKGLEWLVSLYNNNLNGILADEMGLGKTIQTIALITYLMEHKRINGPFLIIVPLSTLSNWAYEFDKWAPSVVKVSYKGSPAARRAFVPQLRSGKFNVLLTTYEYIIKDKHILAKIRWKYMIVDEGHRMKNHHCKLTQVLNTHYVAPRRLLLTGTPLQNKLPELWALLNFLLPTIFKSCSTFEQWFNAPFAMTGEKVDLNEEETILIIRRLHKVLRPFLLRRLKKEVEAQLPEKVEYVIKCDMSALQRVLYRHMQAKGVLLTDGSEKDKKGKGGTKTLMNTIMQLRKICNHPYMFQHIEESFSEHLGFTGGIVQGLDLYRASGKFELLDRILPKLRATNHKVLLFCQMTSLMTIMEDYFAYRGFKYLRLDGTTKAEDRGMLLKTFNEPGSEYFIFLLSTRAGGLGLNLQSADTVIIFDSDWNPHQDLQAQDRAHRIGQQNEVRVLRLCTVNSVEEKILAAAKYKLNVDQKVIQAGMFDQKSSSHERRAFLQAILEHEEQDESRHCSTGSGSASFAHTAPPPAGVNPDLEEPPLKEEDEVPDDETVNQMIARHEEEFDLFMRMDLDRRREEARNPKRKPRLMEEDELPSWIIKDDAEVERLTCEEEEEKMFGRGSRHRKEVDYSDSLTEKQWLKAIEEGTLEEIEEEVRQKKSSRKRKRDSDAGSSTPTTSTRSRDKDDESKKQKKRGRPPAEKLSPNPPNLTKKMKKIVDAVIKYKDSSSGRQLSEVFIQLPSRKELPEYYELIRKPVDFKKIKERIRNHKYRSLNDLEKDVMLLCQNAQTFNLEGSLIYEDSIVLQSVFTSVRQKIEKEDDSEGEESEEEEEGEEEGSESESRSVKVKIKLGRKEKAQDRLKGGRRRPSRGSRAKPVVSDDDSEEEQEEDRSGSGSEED

Compound: CC1(N)CCN(c2cccnc2NC(=O)c2nc(-c3ncccc3C(F)(F)F)cnc2N)CC1 [LXS196]
- growth of PKCi-resistant cells relative to parental MP41 cell line ([1]; FIG. 7A): could tolerate growth at higher concentrations of LXS196

Compound: C[C@@H]1CN(c2cccc(-c3csc(NC(=O)CNC(=O)c4ccn(C(C)(C)C)c4)n3)n2)C[C@H](C)O1 [Compound C, 1-(tert-butyl)-N-(2-((4-(6-(cis-2,6-dimethylmorpholino)pyridin-2-yl)thiazol-2-yl)amino)-2-oxoethyl)-1H-pyrrole-3-carboxamide]
- tumor response at the highest dose ([2]; 50 mg/kg, once daily oral gavage): tumor regression
- tolerability / body weight ([2]; all treatments, FIG. 8C): well tolerated with no body weight loss observed
- tumor growth inhibition ([2]; once daily oral gavage, increasing doses, FIG. 8A, 8B): tumor growth inhibition in a dose-dependent manner

Compound: CSCC[C@H](NC(=O)c1ccn(S(C)(=O)=O)c1)C(=O)Nc1nc(-c2cccc(-c3ccncc3)c2)cs1 [Compound B, (S)-1-(methylsulfonyl)-N-(4-(methylthio)-1-oxo-1-((4-(3-(pyridin-4-yl)phenyl)thiazol-2-yl)amino)butan-2-yl)-1H-pyrrole-3-carboxamide]
- sensitivity of PKCi-resistant cells relative to parental MP41 cells ([1]; FIG. 7B): more sensitive to Compound B than were the parental MP41 cells
- growth inhibition of PKCi-resistant and parental cell lines ([1]; both PKCi-resistant and parental MP41, FIG. 7B): strong growth inhibition
- growth inhibition compared with clinical PKC and MEK inhibitors ([3]; 3 days, FIG. 6A, 6B): more potent effects on growth inhibition
- onset of growth inhibition compared with clinical PKC and MEK inhibitors [3]: faster onset of growth inhibition
- growth inhibition in uveal melanoma cell lines [4]: potent growth inhibition
- sensitivity of cell lines to BRG1/BRM inhibition (growth) ([5]; breast cancer and Ewing's sarcoma cell lines vs other tested cell lines, FIG. 3): more sensitive to BRG1/BRM inhibition than the other tested cell lines
- duration of growth inhibition ([5]; breast cancer and Ewing's sarcoma cell lines, day 7): maintained through day 7

Compound: CSCC[C@H](NC(=O)c1ccc(N)cc1)C(=O)Nc1nc(-c2cccc(-c3ccncc3)c2)cs1 [Compound A]
- growth inhibition compared with clinical PKC and MEK inhibitors ([6]; 3 days, FIG. 2A, 2B): comparable growth inhibition
- onset of inhibition compared with clinical PKC and MEK inhibitors [6]: faster onset of inhibition
- duration of growth inhibition [7]: maintained through day 7

- pIC50 (BRG-1): 7.14
- Ratio (BRG1 IC50 (μM) divided by BRM IC50 (μM)) (BRM): 10.03
- pIC50 (BRM): 8.14
Compound: O=C(NCc1cc2nc(N3CCCc4cc(OC(F)F)cnc43)ccc2cn1)c1cc(F)c2c(c1)S(=O)(=O)[C@@H](F)CCO2 [Compound 229]

- pIC50 (BRG-1): 6.68
- Ratio (BRG1 IC50 (μM) divided by BRM IC50 (μM)) (BRM): 23.61
- pIC50 (BRM): 8.05
Compound: COc1ccc(-c2ccc3cnc(CNC(=O)c4cc(F)c5c(c4)S(=O)(=O)[C@@H](F)CCO5)cc3n2)nc1[C@@H]1CC1(F)F [Compound 273]

- pIC50 (BRG-1): 7.32
- Ratio (BRG1 IC50 (μM) divided by BRM IC50 (μM)) (BRM): 12.04
- pIC50 (BRM): 8.40
Compound: O=C(NCc1cc2nc(N3CCOc4cc([C@H]5CC5(F)F)cnc43)ccc2cn1)c1cc(F)c2c(c1)S(=O)(=O)[C@@H](F)COC2 [Compound 116]
